Test results published in patent US10927117B2 (BEIGENE SWITZERLAND GMBH, priority 2016, dated 2021).
pIC50: −log10 of the molar value. “Also recorded” adds a separate entry of the source.

Tests used:
[1] = Nonclinical toxicity studies in rats
Excerpt: (§1) These studies took account the available regulatory guidance for preclinical development of anticancer drugs.

[2] = Nonclinical toxicity studies in dogs
Excerpt: as §1

[3] = system: systemic REC-1 MCL engrafts; test: Efficacy study in systemic REC-1 xenograft model; assay type: in vivo, NOD/SCID mice; conditions: different dose levels BID p.o., 71 days
Procedure: Animals were pre-treated with cyclophosphamide (prepared in saline, 150 mpk i.p.) and disulfiram (prepared in 0.8% TW-80 in saline, 125 mpk p.o., one hour after each dose of cyclophosphamide) once daily for two days. Animals were then inoculated with REC-1 cells 24 hours after the second dose of cyclophosphamide. On the day of implantation, cell culture medium was replaced with fresh medium. Four hours later, media was removed and cells were collected as described above. Cells were re-suspended in cold (4° C.) PBS to give a final concentration of 1×10^8 cells/ml. Resuspended cells were placed on ice prior to implantation. Each animal was injected intravenously via tail vein with 1×10^7 cells in […] of cell suspension.
For in vivo efficacy studies, starting from day 8 after cell inoculation, animals were randomly assigned into desired number of groups with 10 mice per group. […] Body weight was assessed immediately before dosing and volume dosed was adjusted accordingly. Body weight was recorded twice weekly (changed to three times per week from day 33). […] In the case of severe toxic effect, such as loss of movement, mice were euthanized and scored as death.
For Data Analysis: Survival analysis was performed by Kaplan-Meier method. […] For each group, median survival time (MST), range of survival time (RST) with 95% confidence interval and increase in life-span (ILS) were calculated. […]

[4] = Physical and long term stability test; assay type: physicochemical
[5] = system: Rec-1 cells (MCL cell line); test: Tumor cell proliferation, CellTiter-Glo, Rec-1; assay type: cell-based; conditions: Homo sapiens, Rec1, 144 h, Rec-1 cell line, 6-day exposure, mean of 3 independent assays, read-out: Potency IC50
Procedure: 3 MCL cell lines (Rec-1, Mino and JEKO-1) and an ABC type diffuse large B-cell lymphoma cell line (TMD8) were used in this study. Cell lines were maintained in RPMI-1640 supplemented with 10% fetal bovine serum/FBS (Thermo Scientific); 100 units/ml penicillin (Gibco) and 0.1 mg/ml streptomycin (Gibco) and kept at 37° C. in a humidified atmosphere of 5% CO2 in air. Cell lines were reinstated from frozen stocks that were laid down within 30 passages from the original cells purchased.
The growth-inhibitory activity of compounds in Rec-1, Mino, JEKO-1 and TMD-8 cells was determined using CellTiter-Glo luminescent cell viability assay (Promega). The number of cells seeded per well of a 96-well plate was optimized for each cell line to ensure logarithmic growth over 6 days treatment period. Cells were treated in triplicate with a 10-point dilution series. […] Mixture was mixed on an orbital shaker for 2 minutes to allow cell lysis, followed by 10 minutes incubation at room temperature to allow development and stabilization of luminescent signal, which corresponded to quantity of ATP and thus the quantity of metabolically active cells. Luminescent signal was measured using PHERAstar FS reader (BMG Labtech). IC50 values for cell viability were determined with GraphPad Prism software and were the mean of 3 independent assays.

TEC = target: T1, TEC (Homo sapiens, UniProt P42680); test: IC50 determination of TEC (TR-FRET); assay type: biochemical; conditions: at KM of ATP, 1-hour pre-incubation
T1 sequence (P42680 1-631): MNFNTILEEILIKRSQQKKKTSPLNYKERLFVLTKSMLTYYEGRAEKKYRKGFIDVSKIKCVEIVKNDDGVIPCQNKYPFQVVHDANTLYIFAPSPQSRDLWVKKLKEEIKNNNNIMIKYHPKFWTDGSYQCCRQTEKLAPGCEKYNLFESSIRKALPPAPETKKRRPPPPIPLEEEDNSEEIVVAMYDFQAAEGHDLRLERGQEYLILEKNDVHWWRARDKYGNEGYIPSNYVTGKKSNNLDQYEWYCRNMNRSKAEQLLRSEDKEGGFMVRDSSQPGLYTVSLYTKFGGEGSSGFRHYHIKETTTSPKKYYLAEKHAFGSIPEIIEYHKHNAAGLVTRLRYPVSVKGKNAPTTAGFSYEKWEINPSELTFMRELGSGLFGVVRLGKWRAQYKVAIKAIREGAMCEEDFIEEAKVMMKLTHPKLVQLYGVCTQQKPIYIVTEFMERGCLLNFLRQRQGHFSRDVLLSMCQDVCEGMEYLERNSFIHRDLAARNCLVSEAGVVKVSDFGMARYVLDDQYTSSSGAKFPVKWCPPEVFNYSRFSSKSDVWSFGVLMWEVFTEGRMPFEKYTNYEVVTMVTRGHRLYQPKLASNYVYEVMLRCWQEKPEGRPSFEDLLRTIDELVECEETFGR

[6] = Pharmacokinetics in dogs (LC-MS/MS); assay type: in vivo, beagle dogs
[7] = Pharmacokinetics study in mouse; assay type: in vivo; conditions: ICR mice, oral gavage
Procedure: For time course study, mice were randomly assigned into 7 groups with 4 mice per group. […] For dose dependency study, mice were randomly assigned into 9 groups with 4 mice per group. […] Treatments were administered by oral gavage (p.o.) in a volume of 10 ml/kg body weight. Body weight was assessed immediately before dosing and volume dosed was adjusted accordingly.
PK SAMPLE PREPARATION: For time course study, blood samples (50 μL per mouse) were collected from the retro-orbital sinus under isoflurane/oxygen anesthesia at 15 min after dosing (this group of mice were also used for 24 hr time point) or heart puncture after euthanization for the other time points. For dose dependency study, blood samples were collected from the retro-orbital sinus under isoflurane/oxygen anesthesia at 30 minutes after dosing. Plasma was collected by centrifugation at 3,000 g for 10 minutes and was kept frozen in −80° C. until analysis.
PK Analysis: maximum plasma concentration (Cmax) and time to reach Cmax (Tmax) were taken directly from the plasma concentration versus time profiles.

[8] = 25° C./60% RH for up to 24 months
[9] = 40° C./75% RH for up to 6 months

With C=CC(=O)N1CCC([C@@H]2CCNc3c(C(N)=O)c(-c4ccc(Oc5ccccc5)cc4)nn32)CC1 [Compound 1, (S)-7-(1-acryloylpiperidin-4-yl)-2-(4-phenoxyphenyl)-4,5,6,7-tetra-hydropyrazolo[1,5-a]pyrimidine-3-carboxamide] the “overall tolerance and severe toxicities compared with ibrutinib” value ([1]; rat single and repeat dose toxicity studies up to 28 days) was “safer than ibrutinib” and the “overall tolerance and severe toxicities compared with ibrutinib” value ([2]; dog single and repeat dose toxicity studies up to 28 days) was “safer than ibrutinib”.

With C=CC(=O)N1CCC([C@@H]2CCNc3c(C(N)=O)c(-c4ccc(Oc5ccccc5)cc4)nn32)CC1 [Crystalline Form A, (S)-7-(1-acryloylpiperidin-4-yl)-2-(4-phenoxyphenyl)-4,5,6,7-tetra-hydropyrazolo[1,5-a]pyrimidine-3-carboxamide] the “anti-tumor activity (overall survival)” value [3] was “dose-dependent anti-tumor activity”, the crystal form change [4, 8] was “no crystal form and optical purity changes; also recorded: no crystal form change” and the optical purity change [4, 8] was “no crystal form and optical purity changes”. For the same compound, the “chemical purity (% area) T0” value ([4]; 25° C./60% RH) was 99.2%, the “chemical purity (% area) T12” value ([4]; 25° C./60% RH, T12) was 99.2% and the crystal form change [4, 9] was “no crystal form and optical purity changes; also recorded: no crystal form change”. For the same compound, the optical purity change [4, 9] was “no crystal form and optical purity changes”, the “chemical purity (% area) T0” value ([4]; 40° C./75% RH) was 99.1% and the “chemical purity (% area) T6” value ([4]; 40° C./75% RH, T6) was 99.4%. The “crystal form change (XRPD)” value ([4]; 80° C. for two days) was “no crystal form change”, the pIC50 [5] was 9.44 and the test article-related mortality ([1]; rat, in vivo) was “No test article-related mortality”. The “changes in clinical chemistry or coagulation” value ([1]; rats) was “No toxicologically significant changes”, the test article-related mortality ([2]; dog, in vivo) was “No test article-related mortality” and the “changes in clinical chemistry or coagulation” value ([2]; dogs) was “No toxicologically significant changes”. For the same compound, the pIC50 (TEC) was 8.72, the “accumulation following multiple oral dosing” value [6] was “no accumulation” and the “bioavailability (F %)” value [6] was “reasonably good bioavailability”. The “clearance (CL)” value [6] was “moderate clearance”, the “linearity of PK over the dose range” value [6] was “linear PK over the dose range” and the absorption and elimination [7] was “quickly absorbed and eliminated”.
